Assay results: ChEMBL document CHEMBL5252628, “Novel xanthone antibacterials: Semi-synthesis, biological evaluation, and the action mechanisms” (Bioorg Med Chem, 2023)
≈ marks a conversion by molar mass, not a printed value. Calls of active or inactive are those of the source. The calls are words filed in the database; no cut-off is given here. Where a SMILES comes first, the peptide text is derived from it. [ ]: non-standard residue; d: D form. Orn = NCCC[C@H](N)C(=O)O

Tests used:
Staphylococcus aureus [1] = assay: Antibacterial activity against methicillin-resistant Staphylococcus aureus 2 assessed as blurred space in cytoplasm and cell wall at 5 x MIC incubated for 2 hrs by transmission electron microscopy analysis; assay type: functional, organism-based
Staphylococcus aureus [2] = assay: Antibacterial activity against Staphylococcus aureus ATCC 29213 assessed as cell wall loosening at 5 x MIC incubated for 2 hrs by transmission electron microscopy analysis; assay type: functional, organism-based
Cell membrane [3] = assay: Induction of cell membrane disruption in methicillin-resistant Staphylococcus aureus 2 assessed as increase in protein leakage at 5 x MIC incubated for 2 hrs by coomassie brilliant blue dye assay; assay type: subcellular
Staphylococcus aureus [4] = assay: Antibacterial activity against Staphylococcus aureus ATCC 29213 assessed as separation of plasma wall at 5 x MIC incubated for 2 hrs by transmission electron microscopy analysis; assay type: functional, organism-based
Staphylococcus aureus [5] = assay: Antibacterial activity against methicillin-resistant Staphylococcus aureus 2 assessed as appearance of cell round pellet at 5 x MIC incubated for 2 hrs by transmission electron microscopy analysis; assay type: functional, organism-based
Staphylococcus aureus [6] = assay: Antibacterial activity against methicillin-resistant Staphylococcus aureus 2 assessed as cell wall loosening at 5 x MIC incubated for 2 hrs by transmission electron microscopy analysis; assay type: functional, organism-based
Cell membrane [7] = assay: Induction of cell membrane disruption in Staphylococcus aureus ATCC 29213 assessed as increase in protein leakage at 5 x MIC incubated for 2 hrs by coomassie brilliant blue dye assay; assay type: subcellular
Staphylococcus aureus [8] = assay: Antibacterial activity against Staphylococcus aureus ATCC 29213 assessed as blurred space in cytoplasm and cell wall at 5 x MIC incubated for 2 hrs by transmission electron microscopy analysis; assay type: functional, organism-based
Staphylococcus aureus [9] = assay: Antibacterial activity against Staphylococcus aureus ATCC 29213 assessed as appearance of cell round pellet at 5 x MIC incubated for 2 hrs by transmission electron microscopy analysis; assay type: functional, organism-based
Staphylococcus aureus [10] = assay: Antibacterial activity against methicillin-resistant Staphylococcus aureus 2 assessed as separation of plasma wall at 5 x MIC incubated for 2 hrs by transmission electron microscopy analysis; assay type: functional, organism-based
Staphylococcus aureus [11] = assay: Antibacterial activity Staphylococcus aureus ATCC 29213 infected BALB/c mouse assessed as TNF-alpha cytokine level at 50 to 100 mg/kg,iv measured on day 1 and 3 after infection; assay type: functional, organism-based; conditions: dose 50-100 mg/kg
Staphylococcus aureus [12] = assay: Antibacterial activity against Staphylococcus aureus ATCC 43300 assessed as inhibition of bacterial growth incubated for 18 to 24 hrs by broth microdilution assay; assay type: functional; conditions: time 18-24 hrs
[13] = Hemolytic activity in rabbit RBC assessed as hemolysis incubated for 1 hr by microtiter plate method; assay type: toxicity, cell-based, Oryctolagus cuniculus, Erythrocyte; conditions: red blood cells
Staphylococcus aureus [14] = assay: Inhibition of biofilm formation in Staphylococcus aureus ATCC 29213 at 1 times MIC incubated for 18 to 24 hrs by crystal violet staining based assay; assay type: functional; conditions: time 18-24 hrs
Staphylococcus aureus [15] = assay: Induction of drug resistance in Staphylococcus aureus ATCC 29213 assessed as fold increase in MIC measured after 20 passage; assay type: functional
Staphylococcus aureus [16] = assay: Antibacterial activity against Staphylococcus aureus ATCC 29213 assessed as appearance of circular vesicles at 5 x MIC incubated for 2 hrs by transmission electron microscopy analysis; assay type: functional, organism-based
Staphylococcus aureus [17] = assay: Inhibition of biofilm formation in methicillin-resistant Staphylococcus aureus 2 at 1 times MIC incubated for 18 to 24 hrs by crystal violet staining based assay; assay type: functional; conditions: time 18-24 hrs
Cell membrane [18] = assay: Induction of cell membrane disruption in Staphylococcus aureus ATCC 29213 assessed as increase in intracellular vanomycin content at 10 x MIC incubated for 2 hrs by UPLC analysis
Cell membrane [19] = assay: Disruption of membrane integrity in Staphylococcus aureus ATCC 29213 assessed as cell membrane damage at 5 x MIC incubated for 2 hrs by DAPI staining based assay
Staphylococcus aureus [20] = assay: Antibacterial activity against Staphylococcus aureus SH-27 assessed as inhibition of bacterial growth incubated for 18 to 24 hrs by broth microdilution assay; assay type: functional; conditions: time 18-24 hrs
Staphylococcus aureus [21] = assay: Antibacterial activity against methicillin-resistant Staphylococcus aureus 2 assessed as inhibition of bacterial growth incubated for 18 to 24 hrs by broth microdilution assay; assay type: functional; conditions: time 18-24 hrs
Staphylococcus aureus [22] = assay: Bactericidal activity against methicillin-resistant Staphylococcus aureus 2 assessed as reduction in colony forming unit at 1 to 8 times MIC incubated for 18 to 24 hrs by time kill assay; assay type: functional, organism-based; conditions: time 18-24 hrs
Cell membrane [23] = assay: Induction of cell membrane permeability in methicillin-resistant Staphylococcus aureus 2 at 5 x MIC incubated for 2 hrs by TO-PRO-3 reagent flow cytometry assay; assay type: subcellular
Staphylococcus aureus [24] = assay: Antibacterial activity Staphylococcus aureus ATCC 29213 infected BALB/c mouse assessed as decrease in volume of skin abscess at 50 to 100 mg/kg,iv measured on day 1 and 3 after infection; assay type: functional, organism-based; conditions: dose 50-100 mg/kg
Staphylococcus aureus [25] = assay: Bactericidal activity against methicillin-resistant Staphylococcus aureus 2 assessed as reduction in colony forming unit at 4 times MIC measured after 4 hrs by time kill assay; assay type: functional
Cell membrane [26] = assay: Induction of membrane depolarization in Staphylococcus aureus ATCC 29213 at 5 x MIC incubated for 2 hrs by DiOC23 dye based based flow cytometry; assay type: subcellular
Escherichia coli = assay: Antibacterial activity against Escherichia coli ATCC 25922 assessed as inhibition of bacterial growth incubated for 18 to 24 hrs by broth microdilution assay; assay type: functional; conditions: time 18-24 hrs
Staphylococcus aureus [27] = assay: Antibacterial activity Staphylococcus aureus ATCC 29213 infected BALB/c mouse assessed as increase in skin thickness at 50 to 100 mg/kg,iv measured on day 1 and 3 after infection by hematoxylin and eosin staining based assay; assay type: functional, organism-based; conditions: dose 50-100 mg/kg
Staphylococcus aureus [28] = assay: Antibacterial activity against Staphylococcus aureus ATCC 29213 assessed as inhibition of bacterial growth incubated for 18 to 24 hrs by broth microdilution assay; assay type: functional; conditions: time 18-24 hrs
Staphylococcus aureus [29] = assay: Antibacterial activity Staphylococcus aureus ATCC 29213 infected BALB/c mouse assessed as reduction in bacterial burden at 50 to 100 mg/kg,iv measured on day 1 and 3 after infection; assay type: functional, organism-based; conditions: dose 50-100 mg/kg
A549 = assay: Cytotoxicity against human A549 cells assessed as reduction in cell viability at 25 ug/ml incubated for 72 hrs by CCK-8 assay; assay type: toxicity, cell-based; conditions: a549, 72 h, dose 25 µg/ml
Staphylococcus aureus [30] = assay: Antibacterial activity against Staphylococcus aureus ATCC 33591 assessed as inhibition of bacterial growth incubated for 18 to 24 hrs by broth microdilution assay; assay type: functional; conditions: time 18-24 hrs
Staphylococcus aureus [31] = assay: Antibacterial activity Staphylococcus aureus ATCC 29213 infected BALB/c mouse assessed as decrease in degree of lesion at 50 to 100 mg/kg,iv measured on day 1 and 3 after infection by hematoxylin and eosin staining based assay; assay type: functional, organism-based; conditions: dose 50-100 mg/kg
Staphylococcus aureus [32] = assay: Bactericidal activity against Staphylococcus aureus ATCC 29213 assessed as reduction in colony forming unit at 1 to 8 times MIC incubated for 18 to 24 hrs by time kill assay; assay type: functional, organism-based; conditions: time 18-24 hrs
Staphylococcus aureus [33] = assay: Antibacterial activity Staphylococcus aureus ATCC 29213 infected BALB/c mouse assessed as IL-1beta cytokine level at 50 to 100 mg/kg,iv measured on day 1 and 3 after infection; assay type: functional, organism-based; conditions: dose 50-100 mg/kg
Staphylococcus aureus [34] = assay: Bactericidal activity against Staphylococcus aureus ATCC 29213 assessed as reduction in colony forming unit at 4 times MIC measured after 4 hrs by time kill assay; assay type: functional
Cell membrane [35] = assay: Disruption of membrane integrity in Staphylococcus aureus ATCC 29213 assessed as cell membrane damage at 5 x MIC incubated for 2 hrs by propidium iodide staining based assay; assay type: subcellular
Staphylococcus aureus [36] = assay: Inhibition of biofilm formation in Staphylococcus aureus ATCC 29213 at 4 to 16 microg/ml incubated for 18 to 24 hrs by crystal violet staining based assay; assay type: functional, organism-based; conditions: dose 4-16 µg/ml, time 18-24 hrs
Staphylococcus aureus [37] = assay: Antibacterial activity against methicillin-resistant Staphylococcus aureus 2 assessed as appearance of circular vesicles at 5 x MIC incubated for 2 hrs by transmission electron microscopy analysis; assay type: functional, organism-based
Cell membrane [38] = assay: Induction of membrane depolarization in methicillin-resistant Staphylococcus aureus 2 at 5 x MIC incubated for 2 hrs by DiOC23 dye based based flow cytometry; assay type: subcellular
Cell membrane [39] = assay: Induction of cell membrane permeability in Staphylococcus aureus ATCC 29213 at 5 x MIC incubated for 2 hrs by TO-PRO-3 reagent flow cytometry assay; assay type: subcellular
[40] = Cytotoxicity against human L02 cells assessed as reduction in cell viability incubated for 72 hrs by CCK-8 assay; assay type: toxicity, cell-based
Staphylococcus aureus [41] = assay: Inhibition of biofilm formation in methicillin-resistant Staphylococcus aureus 2 at 4 to 16 microg/ml incubated for 18 to 24 hrs by crystal violet staining based assay; assay type: functional, organism-based; conditions: dose 4-16 µg/ml, time 18-24 hrs
Salmonella enteritidis = assay: Antibacterial activity against Salmonella enteritidis SM012 assessed as inhibition of bacterial growth incubated for 18 to 24 hrs by broth microdilution assay; assay type: functional, Salmonella enterica subsp. enterica serovar Enteritidis; conditions: Salmonella enterica, time 18-24 hrs

CC(C)C[C@@H]1NC(=O)[C@H](CCCN)NC(=O)[C@H](C(C)C)NC(=O)[C@@H]2CCCN2C(=O)[C@@H](Cc2ccccc2)NC(=O)[C@H](CC(C)C)NC(=O)[C@H](CCCN)NC(=O)[C@H](C(C)C)NC(=O)[C@@H]2CCCN2C(=O)[C@@H](Cc2ccccc2)NC1=O (cyclo(V[Orn]L[dF]PV[Orn]L[dF]P))
Activity (Staphylococcus aureus [1]): Active | Activity (Staphylococcus aureus [2]): Active | Activity (Cell membrane [3]): Active | Activity (Staphylococcus aureus [4]): Active | Activity (Staphylococcus aureus [5]): Active | Activity (Staphylococcus aureus [6]): Active | Activity (Cell membrane [7]): Active | Activity (Staphylococcus aureus [8]): Active | Activity (Staphylococcus aureus [9]): Active | Activity (Staphylococcus aureus [10]): Active

COc1c(O)cc2oc3cc(O)c(CC=C(C)C)c(OC(C)=O)c3c(=O)c2c1CC=C(C)C
Activity (Staphylococcus aureus [11]): Active | MIC (Staphylococcus aureus [12]): 1 µg/mL (≈ 2.21 µM) | HC50 at 1 h [13]: 6.3 µg/mL | inhibition (INH) (Staphylococcus aureus [14]): 90% | Activity (Staphylococcus aureus [1]): Active | Activity (Staphylococcus aureus [15]): inactive | Activity (Staphylococcus aureus [2]): Active | Activity (Cell membrane [3]): Active | Activity (Staphylococcus aureus [4]): Active | Activity (Staphylococcus aureus [16]): Active | inhibition (INH) (Staphylococcus aureus [17]): 98% | Activity (Cell membrane [18]): Active | Activity (Cell membrane [19]): Active | MIC (Staphylococcus aureus [20]): 2 µg/mL (≈ 4.42 µM) | MIC (Staphylococcus aureus [21]): 4 µg/mL (≈ 8.84 µM) | Activity (Staphylococcus aureus [22]): Active | Activity (Cell membrane [23]): 100% | Activity (Staphylococcus aureus [24]): Dose-Dependent Effect | Activity (Staphylococcus aureus [25]): 3.72 log10CFU | Activity (Cell membrane [26]): Active | MIC (Escherichia coli): > 256 µg/mL | Activity (Staphylococcus aureus [6]): Active | Activity (Staphylococcus aureus [27]): Active | MIC (Staphylococcus aureus [28]): 4 µg/mL (≈ 8.84 µM) | Activity (Staphylococcus aureus [29]): Active | Activity (A549): Non-Toxic | MIC (Staphylococcus aureus [30]): 1 µg/mL (≈ 2.21 µM) | Activity (Staphylococcus aureus [31]): Active | Activity (Staphylococcus aureus [32]): Active | Activity (Cell membrane [7]): Active | Activity (Staphylococcus aureus [33]): Active | Activity (Staphylococcus aureus [34]): 4.57 log10CFU | Activity (Cell membrane [35]): Active | inhibition (Staphylococcus aureus [36]): Dose-Dependent Effect | Activity (Staphylococcus aureus [8]): Active | Activity (Staphylococcus aureus [37]): Active | Activity (Cell membrane [38]): Active | Activity (Staphylococcus aureus [10]): Active | Activity (Cell membrane [39]): 100% | IC50 at 72 h [40]: 22.1 µg/mL (≈ 48.8 µM) | inhibition (Staphylococcus aureus [41]): Dose-Dependent Effect | MIC (Salmonella enteritidis): > 256 µg/mL

Cc1onc(-c2ccccc2)c1C(=O)N[C@@H]1C(=O)N2[C@@H]1SC(C)(C)[C@@H]2C(=O)O [OXACILLIN]
fold change (FC) (Staphylococcus aureus [15]): 64
